This is an account of results in PubChem BioAssay (NCI).

Some test systems named below: NCI-H23 lung; A549 NSCLC; COLO 205 colon; SF-295 CNS; OVCAR-3 ovarian; SN12C renal; NCI-H226 lung; UACC-62 melanoma.
Holding throughout (assay): DTP human tumour cell line panel, 48 h

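Tested at 5 concentrations; 48 h exposure; 96-well plates; endpoints linearly interpolated, else capped at highest concentration. Here, GI50 denotes the concentration required for 50% inhibition of growth. TGI: concentration producing complete growth inhibition.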 A value given as a limit tells only on which side of the number the result lay.

For the compound `OCC1OC(OCC(O)C(O)C(O)C(/C=N/Nc2ccccc2)=N/Nc2ccccc2)C(O)C(O)C1O` (stereo not given), the total growth inhibition concentration (TGI) in the assay on NCI-H23 lung, in the assay with A549 NSCLC, with COLO 205 colon, in the assay on SF-295 CNS, with OVCAR-3 ovarian and in the assay with SN12C renal was greater than 100 µM in each case.

`O=C(Nc1cccc(Oc2nnc(Cl)c3ccccc23)c1)Nc1ccc(Cl)c(C(F)(F)F)c1`: the GI50 with NCI-H226 lung is 2.14 µM; with NCI-H23 lung it was 0.907 µM; in the assay on A549 NSCLC, 1.1 µM; in the assay on COLO 205 colon it was 0.97 µM; in the assay with SF-295 CNS it was 0.657 µM; in the assay on OVCAR-3 ovarian, 0.773 µM. For the same compound, in the assay with SN12C renal, the GI50 is 0.941 µM. Also, the TGI was determined as 7.2 µM in the assay on NCI-H226 lung; 4.36 µM in the assay with NCI-H23 lung; 8.3 µM in the assay with A549 NSCLC; 3.9 µM with COLO 205 colon; 3.7 µM with SF-295 CNS; 4.46 µM with OVCAR-3 ovarian. In the assay with SN12C renal, this compound returned a TGI of 3.85 µM.

`CCOC(=O)c1c2c(n(Cc3ccccc3)c1C)-c1ccccc1C(=O)C2=O`: the GI50 was 12.1 µM in the assay on NCI-H23 lung; 16.8 µM with A549 NSCLC; 15.6 µM in the assay on COLO 205 colon; 17.8 µM in the assay with UACC-62 melanoma; 19.6 µM in the assay on SF-295 CNS; 12.2 µM in the assay with OVCAR-3 ovarian. For the same compound, in the assay on SN12C renal, the GI50 is 15.7 µM. For the same compound, the TGI came to 27 µM in the assay with NCI-H23 lung; 36.4 µM with A549 NSCLC; 30.6 µM with COLO 205 colon; 34.2 µM with UACC-62 melanoma; 48.4 µM with SF-295 CNS; 29.3 µM with OVCAR-3 ovarian. For the same compound, the concentration for total growth inhibition (TGI) in the assay with SN12C renal was determined as 41.6 µM.

`Cc1cccc(C(=O)/C=C/SC(=NC#N)SCc2ccccc2)c1`: the GI50 in the assay on NCI-H23 lung is 20.9 µM; with A549 NSCLC, 23.7 µM; in the assay on COLO 205 colon, 33.6 µM; in the assay on UACC-62 melanoma, 19.4 µM; with SF-295 CNS it was 21.2 µM; with OVCAR-3 ovarian it was 16.7 µM. In the assay with SN12C renal, the GI50 is 20.4 µM. The TGI with NCI-H23 lung is 47 µM; in the assay on A549 NSCLC, 67.7 µM; with COLO 205 colon it was greater than 100 µM; in the assay on UACC-62 melanoma it was 40.7 µM; in the assay with SF-295 CNS, 88.6 µM; with OVCAR-3 ovarian, 89.7 µM. In the assay with SN12C renal, this compound returned a concentration for total growth inhibition (TGI) of 41.3 µM.

Consider `CCOC(=O)/C=C/c1cc2cc(-c3csc4ccccc34)ccc2[nH]1`, for which the GI50 was 10.6 µM in the assay on NCI-H226 lung; 18.3 µM with NCI-H23 lung; 4.39 µM in the assay with A549 NSCLC; 7.16 µM in the assay with COLO 205 colon; 6.76 µM in the assay with UACC-62 melanoma; 4.11 µM in the assay on SF-295 CNS. Further, the GI50 in the assay on OVCAR-3 ovarian is 5.34 µM. Also, the total growth inhibition concentration (TGI) in the assay on NCI-H226 lung came to 32.7 µM; with NCI-H23 lung, 47.8 µM; in the assay on A549 NSCLC, 18.1 µM; with COLO 205 colon, 21.3 µM; with UACC-62 melanoma, 19.6 µM; in the assay on SF-295 CNS it was 16 µM. This compound gave a TGI in the assay on OVCAR-3 ovarian of 17.1 µM.

Consider `O=C(Nc1ccc(CN2CCOCC2)cc1)c1[nH]ncc1Nc1ncnc2sccc12`, for which the GI50 with NCI-H226 lung was 0.163 µM; in the assay with NCI-H23 lung, 0.358 µM; in the assay with A549 NSCLC it was 0.306 µM; with UACC-62 melanoma, 0.707 µM; in the assay with SF-295 CNS it was 0.484 µM; in the assay on OVCAR-3 ovarian it was 0.29 µM. In addition, the GI50 in the assay on SN12C renal is 0.39 µM. The TGI is 0.63 µM in the assay with NCI-H226 lung; 2.49 µM with NCI-H23 lung; 13.8 µM in the assay on A549 NSCLC; 5.7 µM with UACC-62 melanoma; 16.5 µM with SF-295 CNS; 2.81 µM in the assay with OVCAR-3 ovarian. This compound registered a TGI with SN12C renal greater than 100 µM.

In the case of `Cc1noc(C)c1-c1cc(O)cc(C(O)c2ccccc2)c1` (stereo not given), the GI50 in the assay with NCI-H226 lung is 21.3 µM; in the assay on A549 NSCLC it was 22.4 µM; with COLO 205 colon it was 5.25 µM; with SF-295 CNS, 7.31 µM; in the assay on OVCAR-3 ovarian, 6.65 µM; with SN12C renal, 17.2 µM. In addition, the TGI in the assay on NCI-H226 lung, in the assay with A549 NSCLC, in the assay with COLO 205 colon, in the assay on SF-295 CNS, in the assay on OVCAR-3 ovarian and in the assay on SN12C renal was greater than 100 µM throughout.

Take `O=C(CN1CCN(c2ccc(Cl)cc2)CC1)N1CCN(c2nnc(-c3ccc(Cl)cc3)c(-c3ccc(Cl)cc3)n2)CC1`: the GI50 is 45.7 µM in the assay with NCI-H226 lung; 48 µM in the assay on NCI-H23 lung; greater than 100 µM in the assay with A549 NSCLC; 55.3 µM with COLO 205 colon; 20.9 µM in the assay with SF-295 CNS; 48.3 µM in the assay with OVCAR-3 ovarian. Moreover, the GI50 with SN12C renal was 37 µM. Besides, the TGI with NCI-H226 lung, in the assay with NCI-H23 lung, in the assay on A549 NSCLC, in the assay with COLO 205 colon, in the assay with SF-295 CNS and with OVCAR-3 ovarian was greater than 100 µM each time. In the assay on SN12C renal, this compound had a TGI greater than 100 µM.

As for `COc1ccc(-c2nn(-c3cccc(NC(=O)c4ccc5c(c4)OCCO5)c3)cc2-c2ccncc2)cc1Cl`, the GI50 was 3.3 µM in the assay with NCI-H226 lung; 2.71 µM in the assay with NCI-H23 lung; 2.98 µM in the assay on A549 NSCLC; 1.84 µM in the assay on COLO 205 colon; 1.46 µM in the assay on UACC-62 melanoma; 1.56 µM in the assay on SF-295 CNS. Besides, the GI50 with SN12C renal was 2.92 µM. Also, the TGI in the assay with NCI-H226 lung was greater than 100 µM; with NCI-H23 lung, 21.3 µM; in the assay with A549 NSCLC, 77.5 µM; in the assay with COLO 205 colon, 4.64 µM; with UACC-62 melanoma it was 15.9 µM; in the assay on SF-295 CNS, 4.43 µM. Also, the total growth inhibition concentration (TGI) in the assay with SN12C renal is greater than 100 µM.

Consider `C=CC(C)(O)/C=C/C=C(\C)C(CC1OC1(C)C)OC(=O)/C(C)=C\C` (stereo not given), for which the TGI in the assay with NCI-H23 lung, in the assay on A549 NSCLC, with COLO 205 colon, in the assay on UACC-62 melanoma, with SF-295 CNS and in the assay on OVCAR-3 ovarian was greater than 100 µM throughout. In addition, in the assay with SN12C renal, the TGI is greater than 100 µM.

`Cc1cc(=O)[nH]o1`: the TGI in the assay on NCI-H226 lung, with NCI-H23 lung, in the assay on A549 NSCLC, with COLO 205 colon, in the assay on UACC-62 melanoma and in the assay with SF-295 CNS was greater than 100 µM in each case. In addition, the TGI in the assay on OVCAR-3 ovarian was greater than 100 µM.

With `COc1cnc2c(c1)C(=O)c1c-2n(CCCN2CCC(O)CC2)c(=O)c2cc(F)ccc12`, the GI50 in the assay with NCI-H226 lung was 0.135 µM; in the assay with NCI-H23 lung, 0.292 µM; in the assay with A549 NSCLC, 0.0899 µM; in the assay with UACC-62 melanoma, 0.24 µM; in the assay on OVCAR-3 ovarian, 0.254 µM. The TGI was determined as 0.307 µM with NCI-H226 lung; 1.32 µM with NCI-H23 lung; 0.32 µM in the assay with A549 NSCLC; 0.918 µM in the assay on UACC-62 melanoma; 1.18 µM in the assay with OVCAR-3 ovarian.

One may read the TGI as the concentration at which net growth stops. Broadly, the GI50 is the concentration giving 50% growth inhibition.
